“Also recorded” adds a separate entry of the source. Like-named read-outs stand apart in the source and are kept apart here.
Columns and labels:
Metabolic stability = assay type: in vitro ADME, human
HIV-1 protease = HIV-1 protease (Human immunodeficiency virus type 1 group M subtype B, UniProt P04585); assay: HIV protease inhibition, fluorometric assay; assay type: biochemical; details: for Ki: fluorometric assay, pH 5.0, 30 °C, 5 µM substrate
HIV = assay: In vitro anti-HIV activity in MT4 cells; assay type: cell-based; details: for times higher potency than 13a in the cell-based antiviral activity assay: fold versus 13a
Caco-2 cell = Caco-2 cell penetration assay; assay type: in vitro ADME
[1] = ATZ for comparison, cited from earlier work
[2] = p-bromide inhibitors 13a and 19a compared

Row | Structure (SMILES) | permeability in the Caco-2 study (in words) (Caco-2 cell) | activity in the enzyme assay (in words) (HIV-1 protease) | activity in the cell-based antiviral assay (in words) (HIV) | also measured
1 | COC(=O)N[C@H](C(=O)NN(CC[C@@]1(Cc2ccccc2)C(=O)N([C@H]2c3ccccc3C[C@H]2O)C[C@H]1O)Cc1ccc(Br)cc1)C(C)(C)C [Compound 13a] | – | – | – | metabolic clearance (in words) (Metabolic stability): High metabolic clearance; Ki (HIV-1 protease): < 10 nM; EC50 (HIV; Human immunodeficiency virus 1, MT4, antiviral activity, MT4 cells): < 1000 nM
2 | COC(=O)N[C@H](C(=O)NN(CC[C@@]1(Cc2ccccc2)C(=O)N([C@H]2c3ccccc3C[C@H]2O)C[C@@H]1O)Cc1ccc(-c2cccnc2)cc1)C(C)(C)C [Compound 13h] | moderate permeability | – | – | –
3 | COC(=O)N[C@H](C(=O)N[C@@H](Cc1ccccc1)[C@@H](O)CN(Cc1ccc(-c2ccccn2)cc1)NC(=O)[C@@H](NC(=O)OC)C(C)(C)C)C(C)(C)C [ATZ, Atazanavir] | – | – | – | Clint ([1]; ref 23): 90 μL min^–1 mg^–1; Clint ([1]; ref 64): 140 μL min^–1 mg^–1
4 | COC(=O)N[C@H](C(=O)NN(CCC[C@@]1(Cc2ccccc2)C(=O)N([C@H]2c3ccccc3C[C@H]2O)C[C@H]1O)Cc1ccc(Br)cc1)C(C)(C)C [Compound 19a] | high permeability | – | – | fold loss of potency versus 13a (Ki) (HIV-1 protease; [2]): 5; fold loss of potency versus 13a (EC50) (HIV; [2]): 5
5 | COC(=O)N[C@H](C(=O)NN(CC[C@@]1(Cc2ccccc2)C(=O)N([C@H]2c3ccccc3C[C@H]2O)C[C@H]1O)Cc1ccc(-c2cccnc2)cc1)C(C)(C)C [Compound 13g] | moderate permeability | – | – | times higher potency than 13a in the cell-based antiviral activity assay (HIV): 10
6 | COC(=O)N[C@H](C(=O)NN(CC[C@@]1(Cc2ccccc2)C(=O)N([C@H]2c3ccccc3C[C@H]2O)C[C@H]1O)Cc1ccc(-c2ccncc2)cc1)C(C)(C)C [Compound 13i] | – | – | – | times higher potency than 13a in the cell-based antiviral activity assay (HIV): 10
7 | COC(=O)N[C@H](C(=O)NN(CC[C@]1(Cc2ccccc2)C(=O)N([C@H]2c3ccccc3C[C@H]2O)C[C@H]1O)Cc1ccc(Br)cc1)C(C)(C)C [Compound 13b] | – | did not show any activity; also recorded: almost no inhibiting effect | did not show any activity; also recorded: almost no inhibiting effect | –
8 | COC(=O)N[C@H](C(=O)NN(CC[C@@]1(Cc2ccccc2)C(=O)N([C@H]2c3ccccc3C[C@H]2O)C[C@@H]1O)Cc1ccc(Br)cc1)C(C)(C)C [Compound 13d] | good results | – | – | metabolic clearance (in words) (Metabolic stability): High metabolic clearance; Ki (HIV-1 protease): < 10 nM
9 | COC(=O)N[C@H](C(=O)NN(CC[C@]1(Cc2ccccc2)C(=O)N([C@H]2c3ccccc3C[C@H]2O)C[C@@H]1O)Cc1ccc(Br)cc1)C(C)(C)C [Compound 13c] | – | did not show any activity; also recorded: almost no inhibiting effect | did not show any activity; also recorded: almost no inhibiting effect | –
10 | COC(=O)N[C@H](C(=O)NN(CC[C@@]1(Cc2ccccc2)C(=O)N([C@H]2c3ccccc3C[C@H]2O[Si](C)(C)C(C)(C)C)C[C@H]1O[Si](C)(C)C(C)(C)C)Cc1ccc(Br)cc1)C(C)(C)C [Compound 12a] | – | did not show any activity; also recorded: did not show any inhibitory potency | did not show any activity | –
11 | COC(=O)N[C@H](C(=O)NN(CC[C@@]1(Cc2ccccc2)C(=O)N([C@H]2c3ccccc3C[C@H]2O[Si](C)(C)C(C)(C)C)C[C@@H]1O[Si](C)(C)C(C)(C)C)Cc1ccc(Br)cc1)C(C)(C)C [Compound 12d] | – | did not show any activity; also recorded: did not show any inhibitory potency | did not show any activity | –
